Assay results reported in the supplement of paper PMC10883282.
± gives the standard deviation of the averaged measurements.

Assays:
Experiment in all cases: relative viability vs DMSO control (72 h) (fraction); higher = more viable cells
RD = tested on: RD
Outline: (§1)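 Densities for seeding sarcoma cell lines into 384-well plates were set to give 80–90% confluence. After 24 h, 2.5 µl of serially diluted compound from source plates of 10 mM to 0.0002 mM went in, and plates stayed 72 h at 37 °C in 5% CO2 with 0.1% DMSO vehicle and a 5 µM positive control. Percent growth from ATPLite readings, averaged over up to triplicate wells, served as relative viability, rescaled so 1 means full and 0 means none.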

VA-ES-BJ = tested on: VA-ES-BJ
Outline: as §1

HS729 = tested on: HS729
Outline: as §1

MES-SA = tested on: MES-SA
Outline: as §1

SK-LMS-1 = tested on: SK-LMS-1
Outline: as §1

## COCCNc1cc(NC(=O)N2CCCc3cc(CN4CCN(C)CC4=O)c(C=O)nc32)ncc1C#N [Roblitinib]
RD; 0.00017 µM
  relative viability: 1.08 ± 0.043
RD; 0.00051 µM
  relative viability: 1.074 ± 0.0052
RD; 0.00152 µM
  relative viability: 1.053 ± 0.0062
RD; 0.00457 µM
  relative viability: 1.08 ± 0.026
RD; 0.01372 µM
  relative viability: 1.08 ± 0.026
RD; 0.04115 µM
  relative viability: 1.09 ± 0.019
RD; 0.1235 µM
  relative viability: 1.1 ± 0.012
RD; 0.3704 µM
  relative viability: 1.118 ± 0.0069
RD; 1.111 µM
  relative viability: 1.04 ± 0.019
RD; 3.333 µM
  relative viability: 1.08 ± 0.033
RD; 10 µM
  relative viability: 1.01 ± 0.056
VA-ES-BJ; 0.00017 µM
  relative viability: 1.03 ± 0.029
VA-ES-BJ; 0.00051 µM
  relative viability: 1.01 ± 0.026
VA-ES-BJ; 0.00152 µM
  relative viability: 1 ± 0.02
VA-ES-BJ; 0.00457 µM
  relative viability: 1.02 ± 0.017
VA-ES-BJ; 0.01372 µM
  relative viability: 1.02 ± 0.015
VA-ES-BJ; 0.04115 µM
  relative viability: 1.03 ± 0.025
VA-ES-BJ; 0.1235 µM
  relative viability: 1.04 ± 0.011
VA-ES-BJ; 0.3704 µM
  relative viability: 1.03 ± 0.043
VA-ES-BJ; 1.111 µM
  relative viability: 1.04 ± 0.026
VA-ES-BJ; 3.333 µM
  relative viability: 0.999 ± 0.072
VA-ES-BJ; 10 µM
  relative viability: 0.968 ± 0.073
HS729; 0.00017 µM
  relative viability: 0.894 ± 0.071
HS729; 0.00051 µM
  relative viability: 0.906 ± 0.08
HS729; 0.00152 µM
  relative viability: 0.906 ± 0.061
HS729; 0.00457 µM
  relative viability: 0.894 ± 0.057
HS729; 0.01372 µM
  relative viability: 0.891 ± 0.031
HS729; 0.04115 µM
  relative viability: 0.876 ± 0.068
HS729; 0.1235 µM
  relative viability: 0.858 ± 0.05
HS729; 0.3704 µM
  relative viability: 0.858 ± 0.016
HS729; 1.111 µM
  relative viability: 0.849 ± 0.042
HS729; 3.333 µM
  relative viability: 0.892 ± 0.046
HS729; 10 µM
  relative viability: 0.914 ± 0.047
MES-SA; 0.00017 µM
  relative viability: 0.912 ± 0.035
MES-SA; 0.00051 µM
  relative viability: 0.892 ± 0.015
MES-SA; 0.00152 µM
  relative viability: 0.878 ± 0.04
MES-SA; 0.00457 µM
  relative viability: 0.885 ± 0.056
MES-SA; 0.01372 µM
  relative viability: 0.883 ± 0.017
MES-SA; 0.04115 µM
  relative viability: 0.884 ± 0.024
MES-SA; 0.1235 µM
  relative viability: 0.879 ± 0.039
MES-SA; 0.3704 µM
  relative viability: 0.889 ± 0.055
MES-SA; 1.111 µM
  relative viability: 0.882 ± 0.034
MES-SA; 3.333 µM
  relative viability: 0.839 ± 0.069
MES-SA; 10 µM
  relative viability: 0.79 ± 0.021
SK-LMS-1; 0.00017 µM
  relative viability: 0.941 ± 0.02
SK-LMS-1; 0.00051 µM
  relative viability: 0.942 ± 0.05
SK-LMS-1; 0.00152 µM
  relative viability: 0.932 ± 0.029
SK-LMS-1; 0.00457 µM
  relative viability: 0.957 ± 0.023
SK-LMS-1; 0.01372 µM
  relative viability: 0.938 ± 0.027
SK-LMS-1; 0.04115 µM
  relative viability: 0.988 ± 0.013
SK-LMS-1; 0.1235 µM
  relative viability: 0.921 ± 0.016
SK-LMS-1; 0.3704 µM
  relative viability: 0.995 ± 0.023
SK-LMS-1; 1.111 µM
  relative viability: 0.984 ± 0.044
SK-LMS-1; 3.333 µM
  relative viability: 0.883 ± 0.032
SK-LMS-1; 10 µM
  relative viability: 0.858 ± 0.061

## CC#CC(=O)N1CCC[C@H]1c1nc(-c2ccc(C(=O)Nc3ccccn3)cc2)c2c(N)nccn12 [Acalabrutinib]
RD; 0.00017 µM
  relative viability: 1.13 ± 0.08
RD; 0.00051 µM
  relative viability: 1.13 ± 0.071
RD; 0.00152 µM
  relative viability: 1.12 ± 0.085
RD; 0.00457 µM
  relative viability: 1.15 ± 0.053
RD; 0.01372 µM
  relative viability: 1.13 ± 0.032
RD; 0.04115 µM
  relative viability: 1.09 ± 0.064
RD; 0.1235 µM
  relative viability: 1.06 ± 0.049
RD; 0.3704 µM
  relative viability: 1.06 ± 0.031
RD; 1.111 µM
  relative viability: 1.09 ± 0.019
RD; 3.333 µM
  relative viability: 1.13 ± 0.017
RD; 10 µM
  relative viability: 1.07 ± 0.065
VA-ES-BJ; 0.00017 µM
  relative viability: 1.01 ± 0.035
VA-ES-BJ; 0.00051 µM
  relative viability: 1.01 ± 0.035
VA-ES-BJ; 0.00152 µM
  relative viability: 1.03 ± 0.016
VA-ES-BJ; 0.00457 µM
  relative viability: 1.04 ± 0.064
VA-ES-BJ; 0.01372 µM
  relative viability: 1.01 ± 0.049
VA-ES-BJ; 0.04115 µM
  relative viability: 1.01 ± 0.032
VA-ES-BJ; 0.1235 µM
  relative viability: 1 ± 0.033
VA-ES-BJ; 0.3704 µM
  relative viability: 1.05 ± 0.023
VA-ES-BJ; 1.111 µM
  relative viability: 1.08 ± 0.016
VA-ES-BJ; 3.333 µM
  relative viability: 1.07 ± 0.03
VA-ES-BJ; 10 µM
  relative viability: 1.05 ± 0.048
HS729; 0.00017 µM
  relative viability: 0.88 ± 0.064
HS729; 0.00051 µM
  relative viability: 0.865 ± 0.043
HS729; 0.00152 µM
  relative viability: 0.903 ± 0.017
HS729; 0.00457 µM
  relative viability: 0.941 ± 0.0097
HS729; 0.01372 µM
  relative viability: 0.866 ± 0.082
HS729; 0.04115 µM
  relative viability: 0.877 ± 0.032
HS729; 0.1235 µM
  relative viability: 0.894 ± 0.059
HS729; 0.3704 µM
  relative viability: 0.868 ± 0.031
HS729; 1.111 µM
  relative viability: 0.889 ± 0.03
HS729; 3.333 µM
  relative viability: 0.88 ± 0.044
HS729; 10 µM
  relative viability: 0.95 ± 0.011
MES-SA; 0.00017 µM
  relative viability: 0.914 ± 0.047
MES-SA; 0.00051 µM
  relative viability: 0.905 ± 0.032
MES-SA; 0.00152 µM
  relative viability: 0.937 ± 0.032
MES-SA; 0.00457 µM
  relative viability: 0.914 ± 0.028
MES-SA; 0.01372 µM
  relative viability: 0.908 ± 0.033
MES-SA; 0.04115 µM
  relative viability: 0.909 ± 0.021
MES-SA; 0.1235 µM
  relative viability: 0.912 ± 0.019
MES-SA; 0.3704 µM
  relative viability: 0.926 ± 0.037
MES-SA; 1.111 µM
  relative viability: 0.909 ± 0.051
MES-SA; 3.333 µM
  relative viability: 0.914 ± 0.02
MES-SA; 10 µM
  relative viability: 0.907 ± 0.032
SK-LMS-1; 0.00017 µM
  relative viability: 1 ± 0.057
SK-LMS-1; 0.00051 µM
  relative viability: 1.01 ± 0.032
SK-LMS-1; 0.00152 µM
  relative viability: 1.03 ± 0.06
SK-LMS-1; 0.00457 µM
  relative viability: 1.04 ± 0.024
SK-LMS-1; 0.01372 µM
  relative viability: 1.04 ± 0.02
SK-LMS-1; 0.04115 µM
  relative viability: 1 ± 0.054
SK-LMS-1; 0.1235 µM
  relative viability: 1.03 ± 0.058
SK-LMS-1; 0.3704 µM
  relative viability: 1.04 ± 0.049
SK-LMS-1; 1.111 µM
  relative viability: 1.06 ± 0.014
SK-LMS-1; 3.333 µM
  relative viability: 1.03 ± 0.047
SK-LMS-1; 10 µM
  relative viability: 0.944 ± 0.03
